{"source": "paper PMC5513037", "about": "“Examining the influence of specificity ligands and ATP-competitive ligands on the overall effectiveness of bivalent kinase inhibitors” (Proteome Science, 2017)", "assay_in_all_cases": "KAM-matrix competition in K562 lysate;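 for 0.001 uM KAM: median log10 fold change of treatment over DMSO control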;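 for 0.01 uM KAM: median log10 fold change of treatment over DMSO control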;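 for 0.1 uM KAM: median log10 fold change of treatment over DMSO control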;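 for 1 uM KAM: median log10 fold change of treatment over DMSO control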;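 for 10 uM KAM: median log10 fold change of treatment over DMSO control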", "type_in_all_cases": "binding", "key": {"BRD4": {"target": "T1, BRD4 (Homo sapiens, UniProt O60885)", "T1 construct": "endogenous in cells; host or cells: K562", "procedure": "(§1) Supplement 12953_2017_125_MOESM1_ESM.zip/MS_Supp Info.xlsx, sheet \"KAM\" | column: 10 uM KAM; 1 uM KAM; 0.1 uM KAM; 0.01 uM KAM; 0.001 uM KAM; RB50"}, "MAST3": {"target": "T2, MAST3 (Homo sapiens, UniProt O60307)", "T2 construct": "endogenous in cells; host or cells: K562 cells (lysate)", "T2 sequence (O60307 whole entry)": "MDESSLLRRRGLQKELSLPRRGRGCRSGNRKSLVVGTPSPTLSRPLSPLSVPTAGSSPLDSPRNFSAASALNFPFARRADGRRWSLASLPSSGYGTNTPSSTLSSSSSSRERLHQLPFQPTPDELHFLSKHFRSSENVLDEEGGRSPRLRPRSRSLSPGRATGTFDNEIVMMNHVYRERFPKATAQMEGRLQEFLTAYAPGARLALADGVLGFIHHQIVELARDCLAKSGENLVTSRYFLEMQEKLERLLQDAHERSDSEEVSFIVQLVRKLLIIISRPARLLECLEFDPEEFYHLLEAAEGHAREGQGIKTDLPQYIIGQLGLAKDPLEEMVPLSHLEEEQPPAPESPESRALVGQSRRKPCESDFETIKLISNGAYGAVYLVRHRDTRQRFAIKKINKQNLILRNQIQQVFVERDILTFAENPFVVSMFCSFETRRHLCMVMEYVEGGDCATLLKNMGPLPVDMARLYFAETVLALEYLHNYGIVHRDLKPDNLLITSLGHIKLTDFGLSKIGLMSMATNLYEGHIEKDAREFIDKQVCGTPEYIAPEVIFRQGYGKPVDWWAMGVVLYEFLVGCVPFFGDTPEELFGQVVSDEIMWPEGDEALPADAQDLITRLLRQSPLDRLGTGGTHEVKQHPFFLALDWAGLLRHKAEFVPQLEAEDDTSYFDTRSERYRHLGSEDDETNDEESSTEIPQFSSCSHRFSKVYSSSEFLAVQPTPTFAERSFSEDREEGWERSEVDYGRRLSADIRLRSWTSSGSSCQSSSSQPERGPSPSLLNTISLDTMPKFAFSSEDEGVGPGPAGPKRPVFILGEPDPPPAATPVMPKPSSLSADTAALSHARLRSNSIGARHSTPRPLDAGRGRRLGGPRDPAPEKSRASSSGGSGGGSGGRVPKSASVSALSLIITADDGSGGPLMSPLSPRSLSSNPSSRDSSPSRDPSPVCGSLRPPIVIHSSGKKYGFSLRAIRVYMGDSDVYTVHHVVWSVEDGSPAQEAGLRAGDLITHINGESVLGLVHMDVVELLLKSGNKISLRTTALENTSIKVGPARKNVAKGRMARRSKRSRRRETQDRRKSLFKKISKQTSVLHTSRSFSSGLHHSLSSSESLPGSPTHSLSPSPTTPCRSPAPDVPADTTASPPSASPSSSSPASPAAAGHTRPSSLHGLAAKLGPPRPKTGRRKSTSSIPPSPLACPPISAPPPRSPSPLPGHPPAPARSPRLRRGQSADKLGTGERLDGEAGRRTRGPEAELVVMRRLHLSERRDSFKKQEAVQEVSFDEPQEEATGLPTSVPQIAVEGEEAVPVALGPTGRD", "procedure": "as §1"}, "TLK1": {"target": "T3, TLK1 (Homo sapiens, UniProt Q9UKI8)", "T3 construct": "endogenous in cells; host or cells: K562 cells (combined S0.8 and P0.8 lysate)", "T3 sequence (Q9UKI8 1-766)": "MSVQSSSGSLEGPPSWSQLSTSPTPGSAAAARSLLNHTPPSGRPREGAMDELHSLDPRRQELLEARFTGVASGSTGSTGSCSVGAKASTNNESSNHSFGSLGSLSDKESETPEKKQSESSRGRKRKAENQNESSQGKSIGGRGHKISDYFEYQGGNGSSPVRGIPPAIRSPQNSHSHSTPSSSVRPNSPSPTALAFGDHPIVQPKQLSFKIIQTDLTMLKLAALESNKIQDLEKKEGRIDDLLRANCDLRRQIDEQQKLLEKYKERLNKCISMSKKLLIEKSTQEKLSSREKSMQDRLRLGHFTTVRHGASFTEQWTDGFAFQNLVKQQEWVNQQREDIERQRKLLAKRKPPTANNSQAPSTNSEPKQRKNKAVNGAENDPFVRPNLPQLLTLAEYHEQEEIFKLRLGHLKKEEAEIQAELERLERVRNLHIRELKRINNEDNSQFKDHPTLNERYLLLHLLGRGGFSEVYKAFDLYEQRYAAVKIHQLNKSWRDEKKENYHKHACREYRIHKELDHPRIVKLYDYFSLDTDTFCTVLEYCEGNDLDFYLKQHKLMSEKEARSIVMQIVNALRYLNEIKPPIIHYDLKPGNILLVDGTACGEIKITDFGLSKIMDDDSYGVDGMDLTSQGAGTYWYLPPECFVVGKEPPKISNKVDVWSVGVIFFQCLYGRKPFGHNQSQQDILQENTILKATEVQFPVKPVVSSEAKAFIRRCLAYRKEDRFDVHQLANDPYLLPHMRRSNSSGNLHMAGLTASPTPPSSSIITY", "procedure": "as §1"}, "VRK1": {"target": "T4, VRK1 (Homo sapiens, UniProt Q99986)", "T4 construct": "endogenous in cells; host or cells: K562", "T4 sequence (Q99986 1-396)": "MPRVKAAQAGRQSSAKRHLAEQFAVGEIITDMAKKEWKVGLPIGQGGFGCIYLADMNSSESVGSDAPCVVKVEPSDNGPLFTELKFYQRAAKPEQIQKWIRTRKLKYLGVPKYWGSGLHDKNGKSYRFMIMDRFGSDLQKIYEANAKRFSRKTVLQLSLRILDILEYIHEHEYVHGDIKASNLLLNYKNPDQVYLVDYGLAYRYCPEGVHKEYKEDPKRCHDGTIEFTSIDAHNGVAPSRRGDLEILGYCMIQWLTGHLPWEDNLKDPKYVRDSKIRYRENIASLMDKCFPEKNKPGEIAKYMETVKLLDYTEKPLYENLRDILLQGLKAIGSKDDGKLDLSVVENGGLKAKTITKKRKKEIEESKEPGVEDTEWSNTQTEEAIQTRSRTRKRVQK", "procedure": "as §1"}, "FER": {"target": "T5, FER (Homo sapiens, UniProt P16591)", "T5 construct": "endogenous in cells; host or cells: K562 lysate", "T5 sequence (P16591 whole entry)": "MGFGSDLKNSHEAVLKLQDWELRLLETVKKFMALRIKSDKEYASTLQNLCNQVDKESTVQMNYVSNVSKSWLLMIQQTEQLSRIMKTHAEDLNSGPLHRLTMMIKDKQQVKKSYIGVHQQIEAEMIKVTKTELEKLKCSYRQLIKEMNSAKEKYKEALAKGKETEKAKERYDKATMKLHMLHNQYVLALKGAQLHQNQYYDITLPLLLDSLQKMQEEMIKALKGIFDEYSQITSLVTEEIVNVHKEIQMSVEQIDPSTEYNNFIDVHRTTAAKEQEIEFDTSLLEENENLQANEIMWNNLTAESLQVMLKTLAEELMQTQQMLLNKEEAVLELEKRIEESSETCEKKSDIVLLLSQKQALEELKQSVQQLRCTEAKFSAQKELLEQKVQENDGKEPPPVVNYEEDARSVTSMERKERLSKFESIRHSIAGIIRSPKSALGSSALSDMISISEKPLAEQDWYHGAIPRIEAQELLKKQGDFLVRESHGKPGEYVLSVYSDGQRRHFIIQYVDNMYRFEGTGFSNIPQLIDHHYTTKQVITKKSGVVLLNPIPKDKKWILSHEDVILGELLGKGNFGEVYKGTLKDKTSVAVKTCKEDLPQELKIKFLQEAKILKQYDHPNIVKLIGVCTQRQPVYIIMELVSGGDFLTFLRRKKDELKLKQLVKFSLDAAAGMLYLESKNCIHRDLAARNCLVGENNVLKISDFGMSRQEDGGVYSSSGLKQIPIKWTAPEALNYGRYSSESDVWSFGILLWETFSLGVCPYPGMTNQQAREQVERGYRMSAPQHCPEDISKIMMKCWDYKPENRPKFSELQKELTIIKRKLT", "procedure": "as §1"}, "PHKG1": {"target": "T6, PHKG1 (Homo sapiens, UniProt Q16816)", "T6 construct": "endogenous in cells; host or cells: K562", "T6 sequence (Q16816 whole entry)": "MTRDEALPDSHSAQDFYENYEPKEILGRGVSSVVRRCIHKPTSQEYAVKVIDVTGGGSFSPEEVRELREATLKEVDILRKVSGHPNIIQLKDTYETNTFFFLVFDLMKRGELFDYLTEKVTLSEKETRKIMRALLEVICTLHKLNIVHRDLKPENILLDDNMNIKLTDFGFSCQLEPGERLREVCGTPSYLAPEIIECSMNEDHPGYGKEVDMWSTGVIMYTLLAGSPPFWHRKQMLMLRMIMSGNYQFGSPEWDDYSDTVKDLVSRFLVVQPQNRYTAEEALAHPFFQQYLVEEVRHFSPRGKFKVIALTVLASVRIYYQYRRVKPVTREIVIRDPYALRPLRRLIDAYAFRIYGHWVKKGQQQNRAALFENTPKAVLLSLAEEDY", "procedure": "as §1"}, "AURKA": {"target": "T7, AURKA (Homo sapiens, UniProt O14965)", "T7 construct": "endogenous in cells; host or cells: K562", "T7 sequence (O14965 1-403)": "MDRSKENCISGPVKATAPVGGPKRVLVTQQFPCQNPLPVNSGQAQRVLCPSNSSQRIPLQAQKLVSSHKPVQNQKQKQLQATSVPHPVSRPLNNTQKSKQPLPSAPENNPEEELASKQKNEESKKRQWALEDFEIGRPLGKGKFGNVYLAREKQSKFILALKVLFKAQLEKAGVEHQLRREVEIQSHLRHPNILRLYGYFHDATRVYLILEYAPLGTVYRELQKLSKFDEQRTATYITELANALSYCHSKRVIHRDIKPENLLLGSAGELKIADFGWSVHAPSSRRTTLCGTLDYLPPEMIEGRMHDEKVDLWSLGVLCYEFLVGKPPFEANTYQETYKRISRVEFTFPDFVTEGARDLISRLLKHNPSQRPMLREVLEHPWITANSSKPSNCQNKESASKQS", "procedure": "as §1"}, "[1]": {"conditions": "KAM 0.001-10 uM, read-out: RB50 (the source's name)"}, "[2]": {"conditions": "read-out: RB50 (the source's name)"}}, "note": "pIC50: −log10 of the molar value."}
{"smiles": "N#CCc1ccc(Nc2nc(NCCCN)cc(Nc3cc(C4CC4)[nH]n3)n2)cc1", "note": "[KAM]", "values": [{"measurement": "pIC50", "setting": "BRD4; [1]", "value": "< 5.00"}, {"measurement": "0.001 uM KAM", "setting": "BRD4; relative to 0 uM KAM = 0", "value": -0.02698}, {"measurement": "0.01 uM KAM", "setting": "BRD4; relative to 0 uM KAM = 0", "value": 0.00122}, {"measurement": "0.1 uM KAM", "setting": "BRD4; relative to 0 uM KAM = 0", "value": 0.04808}, {"measurement": "1 uM KAM", "setting": "BRD4; relative to 0 uM KAM = 0", "value": 0.01224}, {"measurement": "10 uM KAM", "setting": "BRD4; relative to 0 uM KAM = 0", "value": -0.001488}, {"measurement": "median Log10 fold change", "setting": "MAST3; 0.001 uM KAM", "value": -0.04433}, {"measurement": "median Log10 fold change", "setting": "MAST3; 0.01 uM KAM", "value": -0.01527}, {"measurement": "median Log10 fold change", "setting": "MAST3; 0.1 uM KAM", "value": -0.1684}, {"measurement": "median Log10 fold change", "setting": "MAST3; 1 uM KAM", "value": -0.3441}, {"measurement": "median Log10 fold change", "setting": "MAST3; 10 uM KAM", "value": -0.4667}, {"measurement": "pIC50", "setting": "MAST3; [2]", "value": 6.11}, {"measurement": "pIC50", "setting": "TLK1; [1]", "value": "< 5.00"}, {"measurement": "0.001 uM KAM", "setting": "TLK1; relative to 0 uM KAM = 0", "value": -0.0133}, {"measurement": "0.01 uM KAM", "setting": "TLK1; relative to 0 uM KAM = 0", "value": 0.001518}, {"measurement": "0.1 uM KAM", "setting": "TLK1; relative to 0 uM KAM = 0", "value": -0.1562}, {"measurement": "1 uM KAM", "setting": "TLK1; relative to 0 uM KAM = 0", "value": -0.3373}, {"measurement": "10 uM KAM", "setting": "TLK1; relative to 0 uM KAM = 0", "value": -0.1561}, {"measurement": "pIC50", "setting": "VRK1; [1]", "value": "< 5.00"}, {"measurement": "0.001 uM KAM", "setting": "VRK1; relative to 0 uM KAM = 0", "value": 0.05319}, {"measurement": "0.01 uM KAM", "setting": "VRK1; relative to 0 uM KAM = 0", "value": 0.02372}, {"measurement": "0.1 uM KAM", "setting": "VRK1; relative to 0 uM KAM = 0", "value": 0.08305}, {"measurement": "1 uM KAM", "setting": "VRK1; relative to 0 uM KAM = 0", "value": 0.1248}, {"measurement": "10 uM KAM", "setting": "VRK1; relative to 0 uM KAM = 0", "value": 0.03089}, {"measurement": "median Log10 fold change", "setting": "FER; 0.001 uM KAM", "value": -0.01643}, {"measurement": "median Log10 fold change", "setting": "FER; 0.01 uM KAM", "value": -0.02602}, {"measurement": "median Log10 fold change", "setting": "FER; 0.1 uM KAM", "value": -0.1873}, {"measurement": "median Log10 fold change", "setting": "FER; 1 uM KAM", "value": -0.4903}, {"measurement": "median Log10 fold change", "setting": "FER; 10 uM KAM", "value": -0.6195}, {"measurement": "pIC50", "setting": "FER; [2]", "value": 6.50}, {"measurement": "median Log10 fold change", "setting": "PHKG1; 0.001 uM KAM", "value": -0.0673}, {"measurement": "median Log10 fold change", "setting": "PHKG1; 0.01 uM KAM", "value": -0.04082}, {"measurement": "median Log10 fold change", "setting": "PHKG1; 0.1 uM KAM", "value": -0.2109}, {"measurement": "median Log10 fold change", "setting": "PHKG1; 1 uM KAM", "value": -0.4403}, {"measurement": "median Log10 fold change", "setting": "PHKG1; 10 uM KAM", "value": -0.5431}, {"measurement": "pIC50", "setting": "PHKG1; [2]", "value": 6.48}, {"measurement": "median Log10 fold change", "setting": "AURKA; 0.001 uM KAM", "value": 0.0112}, {"measurement": "median Log10 fold change", "setting": "AURKA; 0.01 uM KAM", "value": -0.01229}, {"measurement": "median Log10 fold change", "setting": "AURKA; 0.1 uM KAM", "value": -0.2365}, {"measurement": "median Log10 fold change", "setting": "AURKA; 1 uM KAM", "value": -0.473}, {"measurement": "median Log10 fold change", "setting": "AURKA; 10 uM KAM", "value": -0.552}, {"measurement": "pIC50", "setting": "AURKA; [2]", "value": 6.59}]}
